Measurements from PubChem BioAssay (NCI).
“And” between values parts separate entries of the source, which are not always exact repeats. Identical values can stand only once.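 These data come from cells grown in 96-well plates and exposed to compound for 48 hours at five concentrations. GI50: concentration for 50% inhibition of growth. TGI denotes the concentration required for complete inhibition of growth.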

What was measured:
Test in all cases: NCI anticancer screen, dose series, 48 h
786-0 renal = tested on: 786-0 renal
DU-145 prostate = tested on: DU-145 prostate
EKVX NSCLC = tested on: EKVX NSCLC
HCT-116 colon = tested on: HCT-116 colon
HCT-15 colon = tested on: HCT-15 colon
HOP-62 NSCLC = tested on: HOP-62 NSCLC
HOP-92 NSCLC = tested on: HOP-92 NSCLC
M14 melanoma = tested on: M14 melanoma
SNB-19 CNS = tested on: SNB-19 CNS
SW-620 colon = tested on: SW-620 colon

SMILES	GI50 (786-0 renal)	TGI (786-0 renal)	GI50 (DU-145 prostate)	TGI (DU-145 prostate)	GI50 (EKVX NSCLC)	TGI (EKVX NSCLC)	GI50 (HCT-116 colon)	TGI (HCT-116 colon)	GI50 (HCT-15 colon)	TGI (HCT-15 colon)	GI50 (HOP-62 NSCLC)	TGI (HOP-62 NSCLC)	GI50 (HOP-92 NSCLC)	TGI (HOP-92 NSCLC)	GI50 (M14 melanoma)	TGI (M14 melanoma)	GI50 (SNB-19 CNS)	TGI (SNB-19 CNS)	GI50 (SW-620 colon)	TGI (SW-620 colon)
COc1c(B(O)O)cccc1-c1nc2c(F)cc3n[nH]c(C)c3c2c2c1CCCC2	661 nM	10.5 µM	1420 nM	> 50 µM	1420 nM	> 27 µM	314 nM	> 50 µM	1490 nM	> 50 µM	303 nM	> 50 µM	11.7 nM	2.57 µM	2280 nM	8.93 µM	1170 nM	> 50 µM	727 nM	> 50 µM
Cc1cc(C)c2c(c1)N(C)c1ncnc(-n3cnc4cc(C)ccc43)c1CC2C (stereo unspecified)	3530 nM	15.4 µM	4440 nM	63.7 µM	4760 nM	> 100 µM	3080 nM	14.6 µM	3580 nM	36.3 µM	4710 nM	30 µM	4100 nM	32.9 µM	2600 nM	11.2 µM	4220 nM	> 100 µM	4100 nM	64.1 µM
C[C@]12CC[C@@H]3c4ccc(OC(=O)N(CCCl)CCCl)cc4CC[C@H]3[C@@H]1CC[C@@H]2OP(=O)(O)O	43900 nM	> 100 µM	59500 nM	> 100 µM	33200 nM	> 100 µM	41900 nM	> 100 µM	43500 nM	> 100 µM	63000 nM	> 100 µM	> 100000 nM	> 100 µM	37700 nM	> 100 µM	28500 nM	> 57.8 µM	> 80700 nM	> 100 µM
O=C(CN1CCN(C(=O)c2ccco2)CC1)Nc1ccc(Cl)cc1C(=O)c1ccccc1Cl	13600 nM	42.5 µM	15500 nM	35.2 µM	5530 nM	30 µM	13000 nM	26.9 µM	5140 nM	39.7 µM	16900 nM	35.6 µM	4450 nM	24.1 µM	12500 nM	28.1 µM	12100 nM	94.7 µM	12000 nM	30.6 µM
CCc1ncc(CO)n1Cc1cccc2ccccc12		> 100 µM		> 100 µM		> 100 µM		> 100 µM		> 100 µM		> 100 µM		> 100 µM		> 100 µM		> 100 µM		> 100 µM
Cc1cnc(-c2ccc(-c3ccc(NC(=O)Nc4c(F)cc(F)cc4F)cc3F)c3c2C(=O)NC3)[nH]1	1250 nM	2.86 µM	1100 nM and 1420 nM	4.64 µM and 7.36 µM	2330 nM and 2960 nM	> 100 µM	307 nM and 1030 nM	2.8 µM and 2.71 µM	1820 nM and 948 nM	> 100 µM		3.07 µM and 11 µM	1310 nM and 2010 nM	6.37 µM and 12.1 µM	39.2 nM and 211 nM	1.99 µM and 17.1 µM	2000 nM and 2510 nM	14.4 µM and 15.5 µM	430 nM	2.19 µM
O=C1c2ccc3c4c(ccc(c24)C(=O)N1CCNCc1ccccc1)C(=O)N(CCNCc1ccccc1)C3=O	1890 nM	3.59 µM	2760 nM	11.4 µM	2030 nM	6.02 µM	1420 nM	2.89 µM	1430 nM	2.92 µM	1910 nM	4.57 µM	7660 nM	33.2 µM	1850 nM	3.27 µM	2670 nM	9.28 µM	306 nM	1.37 µM
C=CC(=O)N1CCC[C@@H](n2nc(-c3ccc(Oc4ccccc4)cc3)c3c(N)ncnc32)C1	> 4500 nM	> 10 µM	3030 nM	> 10 µM	396 nM	> 10 µM	> 10000 nM	> 10 µM	> 10000 nM	> 10 µM	> 10000 nM	> 10 µM	2670 nM	> 8.69 µM	> 7360 nM	> 10 µM	> 10000 nM	> 10 µM	> 10000 nM	> 10 µM
COC1C(=O)CCC2(CO2)C1(O)C1(C)OC1CC=C(C)C (stereo unspecified)		> 100 µM		> 100 µM		> 100 µM		> 100 µM		> 100 µM		> 100 µM		> 100 µM		53.2 µM		> 100 µM		> 100 µM
Fc1ccc(Nc2nc3nonc3nc2Nc2ccc(I)cc2)cc1	298 nM	2.59 µM	395 nM	16.8 µM	273 nM	10.1 µM	240 nM	11.3 µM	302 nM	10.5 µM	344 nM	1.92 µM	40 nM	0.326 µM	289 nM	2.86 µM	275 nM	15.9 µM	387 nM	15.6 µM
CC1[C@@H]2CC=C3[C@H]4CCC5Cc6nc7c(nc6C[C@@]5(C)C4CC(=O)[C@]32CO[C@]12OC(C)(C)CC2O)CC1CC[C@@H]2C3=C[C@H]4O[C@@]5(O[C@@](C)(CO)C[C@@H]5O)C(C)[C@@]4(O)[C@]3(C)[C@@H](O)CC2[C@]1(C)C7 (stereo partly specified)	0.168 nM	0.0303 µM	53.8 nM	0.716 µM	5.39 nM and 7.63 nM	0.141 µM and 0.227 µM	0.846 nM and 2.81 nM	0.0837 µM and 0.532 µM	4.1 nM and 7.63 nM	0.102 µM and 0.129 µM	0.24 nM and 0.365 nM	0.00248 µM and 0.00609 µM	0.668 nM and 0.454 nM		1.31 nM	0.0124 µM	4.59 nM and 9.21 nM	0.537 µM and 0.443 µM	0.982 nM and 2.04 nM	0.0262 µM and 0.0526 µM
COc1cc2c(cc1OCCCN1CCN(C(=S)SCCC(C#N)(c3ccccc3)c3ccccc3)CC1)N=C[C@@H]1CCCN1C2=O	493 nM	1.08 µM	469 nM		2170 nM	5.27 µM	388 nM	1.56 µM	1680 nM	3.48 µM	121 nM	0.456 µM	545 nM	3.85 µM	1170 nM	2.67 µM	2190 nM		514 nM	1.94 µM
CCOc1ccc2c(c1)C(=O)c1c-2n(CCCN=[N+]=[N-])c(=O)c2cc([N+](=O)[O-])ccc12	4100 nM	22.7 µM	3860 nM	38.6 µM	32500 nM	> 100 µM	1820 nM	> 100 µM	16900 nM	> 100 µM	3000 nM	43.6 µM	7950 nM	46.7 µM	3630 nM	> 100 µM	4140 nM	85.5 µM	3420 nM	> 100 µM
O=C(N/N=C/c1ccncc1)c1ccc(F)cc1	> 40000 nM	> 40 µM	> 40000 nM	> 40 µM	> 40000 nM	> 40 µM	> 40000 nM	> 40 µM	> 40000 nM	> 40 µM	> 40000 nM	> 40 µM	> 40000 nM	> 40 µM	> 40000 nM	> 40 µM	> 40000 nM	> 40 µM	> 40000 nM	> 40 µM
CC[C@@H](C)/C=C(C)/C=C/C(=O)c1c(O)c(-c2ccc(O)cc2)cn(OC2CC(=O)CCC(C)OC(=O)CC2O)c1=O (stereo partly specified)	386 nM	4.09 µM	303 nM	13.4 µM	1390 nM	12.3 µM	272 nM	13 µM	145 nM	15.8 µM	356 nM	12.9 µM	509 nM	18.6 µM	258 nM	2.38 µM	554 nM	14.9 µM	562 nM	16.4 µM
Nc1cc(N)c2nc(NCCc3ccc(Cl)c(Cl)c3)cnc2c1	16500 nM	32.9 µM	17200 nM	31 µM	12100 nM	24.6 µM	3700 nM	15.1 µM	13500 nM	27.3 µM	19800 nM	38 µM	6150 nM	19.5 µM	18000 nM	38.5 µM	15800 nM	30 µM	16200 nM	32 µM
COc1cc2c(cc1-c1coc3cc(O)ccc3c1=O)OCO2		29.9 µM		> 100 µM		> 100 µM		37.1 µM		35.6 µM		33.3 µM		67.6 µM		> 100 µM		43.1 µM		> 100 µM
CCCCOC(=O)c1c(C)[nH]c(/C=C2\N=C(c3ccc[nH]3)C=C2OC)c1C	267 nM	3.09 µM	274 nM	6.37 µM	460 nM	4.88 µM	41.2 nM	1.36 µM	53 nM	1.29 µM	416 nM	8.04 µM	163 nM	0.637 µM	171 nM	2.01 µM	1180 nM	> 56.1 µM	56.9 nM	1.44 µM
COc1ncc(-c2ccc3nccc(C#CCCCCC(=O)NO)c3c2)cc1NS(=O)(=O)c1ccc(F)cc1F	81.9 nM	3.68 µM	134 nM	12.6 µM	56.9 nM	4.09 µM	123 nM	2.8 µM	150 nM	13 µM	125 nM	10 µM	15.6 nM	0.106 µM	148 nM	3.62 µM	147 nM	5.98 µM	158 nM	3.9 µM
Nc1n[nH]c2ccc([C@@H]3Nc4ccc5cn[nH]c5c4[C@H]4C5CCC(C5)[C@@H]34)cc12 (stereo partly specified)	950 nM	98.6 µM	417 nM	> 100 µM	554 nM	> 100 µM	442 nM	> 100 µM	414 nM	> 100 µM	485 nM	> 70 µM	2140 nM	> 89.4 µM	317 nM	> 100 µM	601 nM	> 100 µM	401 nM	> 100 µM
CC(=O)Nc1cc2c3c(cccc3c1)-c1ccccc1-2	14200 nM	40 µM	16300 nM	30.2 µM	7940 nM	38.9 µM	> 100000 nM	> 100 µM	> 100000 nM	> 100 µM	22700 nM	69.5 µM	17800 nM	44.8 µM	> 100000 nM	> 100 µM	40200 nM	> 100 µM	95600 nM	> 100 µM
CC(=O)ON=C1C=CC(=C(C#N)c2ccccc2)C=C1	1190 nM	14.1 µM	704 nM	2.86 µM	6960 nM	42.4 µM	283 nM	11.5 µM	970 nM	14.2 µM	1630 nM	9.16 µM	1670 nM	6.99 µM	1890 nM	9.9 µM	11500 nM	> 57.5 µM	452 nM	7.76 µM
